Here are results for 13 compounds from US9157917B2, “Applications of Indoloindole and Indoloquinoline dyes” (Biosynth AG, priority 2010, dated 2015).

Data set [1] deals with various bacterial strains. The experiment in a line: Nonanoate indicators in buffered peptone water in polystyrene plates. It is filed as cell-based. To be noted: 0.2 mM, polystyrene plate, 37° C., excitation 360 nm, emission 460 nm. The procedure:
Buffered peptone water containing either 0.4 mM Aldol™ 495 nonanoate or 0.2 mM 4-methylumbelliferyl nonanoate was dispensed in a microtiter plate and inoculated with about 700 cfu/ml of various bacterial strains. […] An excitation wavelength of 360 nm was used for both dyes, the emission wavelength was 560 nm for the Aldol™ 495 dye and 460 nm for the 4-methylumbelliferone.

Data set [2] in a line: Release of dyes from precursors through heat in PP tubes containing PE pellets. It is filed as physicochemical. The settings on record: PP tubes and PE pellets (emptied and flushed with water) after heating for 40 min at 90° C. The procedure: As a further example the release of Aldol™ 470-, 495-, and 515 dyes from various Aldol™ acetate precursors through heat is given: The compounds were incubated at room temperature and at 90° C. for 40 min in PP tubes containing PE pellets. […] Whereas for all tubes at room temperature neither coloration nor fluorescence was detected, the Aldol™ acetates but not the Aldol™ galactosides were instable at 90° C. and led to fluorescence of the PP and PE host (Table 2).

For data set [3], the system named is E. coli. Nature of the data set: Fluorescence of colonies on membrane filters. It is filed as cell-based. The settings on record: Naked nutrient agar, 0.4 mM, 14-16 hours at 37° C.
A short description of data set [4]: Fluorescence of IO dyes in various hosts. Format: physicochemical. The procedure: In this description various IO dyes are given as illustrative examples (Scheme I) but these examples shall not limit the invention in any way. It was discovered that IO/IQ dyes have a strong solvatochromic effect. When, for example, the 470-, 495- and 515-dyes were dissolved in a series of solvents, the fluorescence of the solution was higher the lower the polarity of the solvent was. […] It was also discovered that the fluorescence color might change with the solvent used.

A short description of data set [5]: Stamping on LDPE film, stability to treatments. It is filed as physicochemical. The procedure: Three pieces of felt were soaked with ethanol containing 0.5 mM of Aldol™ 470, Aldol™ 495 or Aldol™ 515 dye respectively. A stamp was pressed first on the felt then on a piece of low density polyethylene film. The film was left to dry for 15 minutes and then exposed to various treatments (Table 4).

Data set [6] in a line: Application of aqueous dye suspensions to PP tubes and PE pellets at different temperatures. It is filed as physicochemical. To be noted: for Fluorescence of PP tubes and PE pellets, comparison between dyes: 22° C., 37° C., 90° C. The procedure:
The application of dye to plastic can be improved by increasing the temperature. Aqueous suspensions of Aldol™ 470, 495, 515 and 518 dyes in PP tubes containing PE pellets were incubated at three different temperatures (22° C., 37° C., and 90° C.). The resulting fluorescence of PP tubes and PE pellets was much stronger after incubation at 90° C. for 5 hours than after 24 hours incubation at 37° C. or 22° C. Incubation at 37° C. led to more fluorescence than incubation at 22° C. Fluorescence after incubation at 22° C. was very weak, except for PE pellets incubated in the presence of Aldol™ 495 dye and Aldol™ 515 dye.

The test system of data set [7] is phosphatase coupled goat anti rabbit antibody. Nature of the data set: Dot blot on nitrocellulose membrane. Format: biochemical. The settings on record: 0.4 mM in assay buffer pH 9.5. An excerpt: Western Blotting is a routine technique for protein analysis. A widely used, cost-effective and simple way for signal detection is the reaction of a chromogenic phosphatase indicator with alkaline phosphatase coupled to the secondary antibody, yielding a colored band or spot. The IO/IQ indicators offer an easy way for fluorescent and chromogenic western blotting based on the same principle as the common chromogenic western blotting, the only difference being the phosphatase indicator. […] In addition, after longer incubation the dots were also clearly identified under white light through their yellow color. Thus, IO/IQ indicators offer a way of performing chromogenic and fluorogenic blotting assay at the same time.
0.16 μg of beta-galactosidase in 4 μl of phosphate buffer was spotted on a nitrocellulose membrane. The membrane was dried for 15 min and then blocked in TBS-T (20 mM Tris-HCl, 150 mM NaCl, 0.05% Tween20, pH 7.5) with 5% BSA for one hour. Then the membrane was incubated with a rabbit anti-beta-galactosidase antibody in TBS-T/5% BSA for one hour, washed three times for 5 min in TBS-T, and incubated with a phosphatase coupled goat anti rabbit antibody in TBS-T/5% BSA for one hour. […]

In data set [8] the target is E. coli beta-galactosidase (Escherichia coli, UniProt P00722). The procedure: 100 mM sodium phosphate buffer (pH 7.3) containing 1 mM MgCl2 and 0.5 mM Aldol™ 495 beta-D-galactoside, was distributed into glass, polystyrene and polypropylene tubes (two of each). Purified E. coli beta-galactosidase was added to half of the tubes, the other half serving as negative controls.
Sequence of E. coli beta-galactosidase (P00722 2-1024): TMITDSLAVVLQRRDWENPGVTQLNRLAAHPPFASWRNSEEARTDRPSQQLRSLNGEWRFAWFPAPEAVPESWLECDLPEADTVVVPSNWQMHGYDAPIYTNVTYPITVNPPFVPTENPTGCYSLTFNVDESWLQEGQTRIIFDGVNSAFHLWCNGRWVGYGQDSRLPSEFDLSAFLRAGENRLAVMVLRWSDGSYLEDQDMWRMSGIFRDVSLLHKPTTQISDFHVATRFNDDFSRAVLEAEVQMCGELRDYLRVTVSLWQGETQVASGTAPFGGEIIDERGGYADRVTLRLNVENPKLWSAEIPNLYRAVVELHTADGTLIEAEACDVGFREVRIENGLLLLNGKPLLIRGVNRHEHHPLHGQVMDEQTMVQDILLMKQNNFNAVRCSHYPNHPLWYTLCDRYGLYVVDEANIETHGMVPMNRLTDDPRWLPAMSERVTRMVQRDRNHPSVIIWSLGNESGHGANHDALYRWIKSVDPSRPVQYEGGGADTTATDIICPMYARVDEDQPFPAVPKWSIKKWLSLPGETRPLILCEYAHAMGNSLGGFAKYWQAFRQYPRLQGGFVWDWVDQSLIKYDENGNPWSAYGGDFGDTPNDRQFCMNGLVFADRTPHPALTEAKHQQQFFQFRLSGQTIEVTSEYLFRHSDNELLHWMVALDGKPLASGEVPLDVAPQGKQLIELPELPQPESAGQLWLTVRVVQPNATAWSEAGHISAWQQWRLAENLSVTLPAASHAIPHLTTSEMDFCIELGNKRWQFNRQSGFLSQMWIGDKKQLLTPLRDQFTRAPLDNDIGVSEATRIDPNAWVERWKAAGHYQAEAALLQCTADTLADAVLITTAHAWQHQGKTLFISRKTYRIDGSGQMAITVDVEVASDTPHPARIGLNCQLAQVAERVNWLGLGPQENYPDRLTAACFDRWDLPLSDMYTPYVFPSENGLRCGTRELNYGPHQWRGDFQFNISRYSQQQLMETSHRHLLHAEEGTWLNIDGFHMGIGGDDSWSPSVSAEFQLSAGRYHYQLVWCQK

Data set [9] has as its system E. coli. The experiment in a line: Peptone broth culture in tubes.
Data set [10] deals with S. enteritidis. The experiment in a line: Peptone broth culture in tubes.
Data set [11] in a line: Excitation and emission spectra of dye in polypropylene. It is filed as physicochemical. To be noted: in polypropylene microtiter plate. The procedure:
The excitation and emission spectra of the Aldol™ 495 dye in PP were measured in a standard plate reader using a polypropylene microtiter plate that has been incubated with broth containing Aldol™ 495 beta-D-galactoside and an E. coli culture. […] The optimal excitation is at 310 nm (FIG. 1).

The test system of data set [12] is E. coli. The experiment in a line: Cultures with paraffin oil overlay.
In data set [13] the test system is S. enteritidis. Nature of the data set: Cultures with paraffin oil overlay.
The mark [14] stands for this setting: paraffin oil overlay 0 μl, 16 h.
Where [15] appears, read: paraffin oil overlay 0 μl, 21 h.
The mark [16] stands for this setting: paraffin oil overlay 0 μl, 40 h.
Setting [17] is: paraffin oil overlay 50 μl, 16 h.
The mark [18] stands for this setting: paraffin oil overlay 50 μl, 21 h.
Where [19] appears, read: paraffin oil overlay 50 μl, 40 h.
Setting [20] is: paraffin oil overlay 300 μl, 16 h.
The mark [21] stands for this setting: paraffin oil overlay 300 μl, 21 h.
Setting [22] is: paraffin oil overlay 300 μl, 40 h.

With `CCCCCCCCC(=O)Oc1ccc2c(C)cc(=O)oc2c1` [4-methylumbelliferyl nonanoate, reference compound], the “Fluorescence of C9 esterase negative strains and sterile control” value in data set [1] is “strong fluorescence”.

Take `COc1ccc(C(=O)c2ccccc2-n2cc(OC(C)=O)c3ccccc32)c(OC)c1` [Aldol ™ 470 acetate]: the Color of tube result in [2] was “Light yellow”.

On to `CC(=O)Oc1cn(-c2ccccc2C(=O)c2cccn2C)c2cc(Cl)ccc12` [Aldol ™ 495 acetate], for which the Color of tube result in data set [2] is reported as “Very light green”.

On to `CC(=O)Oc1cn(-c2ccccc2C(=O)c2ccc(N(C)C)cc2)c2ccccc12` [Aldol ™ 515 acetate], for which the Color of tube result in data set [2] is recorded as “Very light orange”.

Take `COc1ccc(C(=O)c2ccccc2-n2cc(NC(=O)[C@H](C)N)c3ccccc32)c(OC)c1` [Aldol™ 470 L-alanine amide]: in the data set on E. coli [3], the “Fluorescence of E. coli colonies” value is listed as “No fluorescence”.

Turning to `COc1ccc(C(=O)c2ccccc2-n2cc(O[C@@H]3O[C@H](CO)[C@H](O)[C@H](O)[C@H]3O)c3ccccc32)c(OC)c1` [Aldol™ 470 beta-D-galactoside], in data set [2], the Color of tube entry is on record as “No color” and the Fluorescence of tube result was “No fluorescence”.

Consider `COc1ccc(-c2c3n(c4ccccc24)-c2ccccc2C3=O)c(OC)c1` [Aldol™ 470 dye], for which the Fluorescence color result in data set [4] (Acetone) is on record as “Green”; in data set [4] (Ethanol) it was “orange”; in data set [4] (Mineral oil) it was “Green”; in data set [4] (Paraffin oil), “Green”. Also, the Fluorescence intensity entry in [4] (Acetone) is reported as “Strong”; in data set [4] (Mineral oil) it was “Medium”; in [4] (Paraffin oil), “Medium”; in [4] (Silicon oil), “Weak”. Also, in data set [5] (After soaking for 18 h in ethanol), the “Fluorescence of imprint on LDPE film” value was “No fluorescence”. The “Fluorescence of PP tubes and PE pellets after 90° C. for 5 hours versus 24 hours at 37° C. or 22° C.” value in data set [6] is “much stronger”.

`COc1ccc(C(=O)c2ccccc2-n2cc(OP(=O)(O)O)c3ccccc32)c(OC)c1` [Aldol™ 470 phosphate]: the “Fluorescence or coloration of spot of alpha-amylase (negative control)” value in data set [7] was “No fluorescence or coloration”.

In the case of `Cn1cccc1C(=O)c1ccccc1-n1cc(O[C@@H]2O[C@H](CO)[C@H](O)[C@H](O)[C@H]2O)c2ccc(Cl)cc21` [Aldol™ 495 beta-D-galactoside], the Color of tube result in [2] is “No color”. The Fluorescence of tube entry in [2] is reported as “No fluorescence”. Further, the “Color under white light” value in data set [8] (0.5 mM, pH 7.3, glass, polystyrene and polypropylene tubes with beta-galactosidase) was “red-brown precipitate”. In addition, the “Time until new polypropylene tube started to fluoresce after transfer of content” value in [8] (content of fluorescent PP tube transferred into new PP tube) is “around 10 minutes”. Besides, in the data set on E. coli [3], the “Fluorescence of E. coli colonies” value is “No fluorescence”. The “Fluorescence of PP tube under UV light (366 nm)” value in the data set with E. coli [9] (E. coli, 0.4 mM in peptone broth, 16 h incubation) is “Strong green”; in the data set on E. coli [9] (E. coli, after autoclaving and emptying tube) it was “Strong green”; in the data set with E. coli [9] (E. coli, after washing in dish-washer), “Strong green”; in the data set on S. enteritidis [10] (0.4 mM in peptone broth, 16 h incubation) it was “No fluorescence”; with S. enteritidis [10] (after autoclaving and emptying tube), “No fluorescence”; in the data set with S. enteritidis [10] (after washing in dish-washer) it was “No fluorescence”. Besides, the “Fluorescence of glass tube” value in the data set on E. coli [9] (E. coli, 0.4 mM in peptone broth, glass test tubes) is on record as “no fluorescence”; in the data set with S. enteritidis [10] (0.4 mM in peptone broth, glass test tubes) it was “no fluorescence”. Besides, the “Stability under autoclaving conditions” value in the data set on E. coli [9] (in the medium tested) is on record as “stable under autoclaving conditions”.

With `Cn1cccc1-c1c2n(c3ccccc13)-c1cc(Cl)ccc1C2=O` [Aldol™ 495 dye], the Fluorescence intensity entry is “Strong” in data set [4] (Acetone), “Medium” in data set [4] (Silicon oil) and “None” in data set [4] (Water). Further, the Fluorescence color result in data set [4] (Mineral oil) is “Green”; in [4] (Paraffin oil) it was “Green”; in [4] (Water) it was “None”. This compound showed an Emission maximum in data set [11] of 510 nm. This compound also showed an Optimal excitation in [11] of 310 nm. Besides, the “Fluorescence of PP tubes and PE pellets after 90° C. for 5 hours versus 24 hours at 37° C. or 22° C.” value in [6] was “much stronger”. The “Fluorescence of PP tubes and PE pellets, comparison between dyes” value in [6] was “more fluorescence than Aldol™ 515 dye”.

On to `CN(C)c1ccc(-c2c3n(c4ccccc24)-c2ccccc2C3=O)cc1` [Aldol™ 515 dye], for which the Fluorescence color result is listed as “Red” in data set [4] (Acetone); “Red” in data set [4] (Ethanol); “Yellow” in [4] (Mineral oil); “Red” in data set [4] (Silicon oil); “Red” in [4] (Water). For the same compound, the Fluorescence intensity result in data set [4] (Acetone) was “Medium”; in [4] (Ethanol) it was “Weak”. In addition, in data set [5] (under the conditions tested, compared with the other dyes), the “Stability of stamping on LDPE” value was “most stable”. In data set [6], the “Fluorescence of PP tubes and PE pellets after 90° C. for 5 hours versus 24 hours at 37° C. or 22° C.” value is recorded as “much stronger”. In data set [6], the “Fluorescence of PP tubes and PE pellets, comparison between dyes” value was “more fluorescence than Aldol™ 518 dye and Aldol™ 470 dye”.

As to `CN(C)c1ccc(C(=O)c2ccccc2-n2cc(O[C@@H]3O[C@H](CO)[C@H](O)[C@H](O)[C@H]3O)c3ccc(Cl)cc32)cc1` [Aldol™ 518 beta-D-galactoside], the Color of tube result in data set [2] is recorded as “No color”. For the same compound, the Fluorescence of tube entry in data set [2] is “No fluorescence”. Also, the Color result in the data set on E. coli [12] (setting [14]), in the data set on E. coli [12] (setting [15]), with E. coli [12] (setting [16]), with E. coli [12] (setting [17]), in the data set with E. coli [12] (setting [18]) and in the data set on E. coli [12] (setting [19]) was “Red” throughout. For the same compound, the Color result in the data set with E. coli [12] (setting [20]) is reported as “Red”; in the data set with E. coli [12] (setting [21]) it was “Red”; in the data set on E. coli [12] (setting [22]), “Red”; in the data set on S. enteritidis [13] (setting [14]), “Beige”; with S. enteritidis [13] (setting [15]) it was “Beige”; in the data set on S. enteritidis [13] (setting [16]) it was “Beige”. For the same compound, the Color entry in the data set on S. enteritidis [13] (setting [17]), in the data set on S. enteritidis [13] (setting [18]), in the data set with S. enteritidis [13] (setting [19]), in the data set with S. enteritidis [13] (setting [20]), in the data set on S. enteritidis [13] (setting [21]) and with S. enteritidis [13] (setting [22]) was “Beige” in each case.

Consider `CN(C)c1ccc(-c2c3n(c4ccccc24)-c2cc(Cl)ccc2C3=O)cc1` [Aldol™ 518 dye], for which, in data set [6], the “Fluorescence of PP tubes and PE pellets after 90° C. for 5 hours versus 24 hours at 37° C. or 22° C.” value was “much stronger”.
